Test results as given in ChEMBL document CHEMBL1144591, “Synthesis and cytotoxicity of some new eriocalyxin B derivatives” (Eur J Med Chem, 2007).
≈ marks a conversion by molar mass, not a printed value.

Columns and labels:
Assay type in all cases: functional, cell-based
K562 = assay: Cytotoxicity against human K562 cells after 48 hrs by MTT colorimetric assay; details: K562, 48 h
MCF7 = assay: Cytotoxicity against human MCF7 cells after 48 hrs by MTT colorimetric assay; details: MCF7, 48 h
A549 = assay: Cytotoxicity against human A549 cells after 48 hrs by MTT colorimetric assay; details: A549, 48 h
DU-145 = assay: Cytotoxicity against human DU145 cells after 48 hrs by MTT colorimetric assay; details: DU-145, 48 h
[1] = Cytotoxicity against human OVCA2780 cells after 48 hrs by MTT colorimetric assay; details: A2780, 48 h

Structure (SMILES)	IC50 (K562)	IC50 (MCF7)	IC50 (A549)	IC50 (DU-145)	IC50 [1]
C[C@H]1C(=O)[C@]23C[C@H]1CC[C@H]2[C@@]12CO[C@@]3(O)[C@@H](O)[C@@H]1C(C)(C)CCC2=O	> 100 µg/mL	> 200 µg/mL	> 100 µg/mL	> 200 µg/mL	> 200 µg/mL
C=C1C(=O)[C@]23C[C@H]1CC[C@H]2[C@@]12CO[C@@]3(O)[C@@H](OC(C)=O)[C@@H]1C(C)(C)C=CC2=O	25 µg/mL (≈ 64.7 µM)	20.1 µg/mL (≈ 51.9 µM)	31 µg/mL (≈ 80.2 µM)	80.6 µg/mL (≈ 209 µM)	11.9 µg/mL (≈ 30.9 µM)
C=C1C(=O)[C@]23C[C@H]1CC[C@H]2[C@@]12CO[C@@]3(O)[C@@H](OC(=O)CBr)[C@@H]1C(C)(C)C=CC2=O	1.5 µg/mL (≈ 3.22 µM)	0.85 µg/mL (≈ 1.83 µM)	4.86 µg/mL (≈ 10.4 µM)	4.52 µg/mL (≈ 9.71 µM)	2.06 µg/mL (≈ 4.43 µM)
C=C1C(=O)[C@]23C[C@H]1CC[C@H]2[C@]1(COC(C)=O)C(=O)C=CC(C)(C)[C@H]1[C@H](OC(C)=O)C3=O	28.1 µg/mL (≈ 65.6 µM)	24.6 µg/mL (≈ 57.4 µM)	61.8 µg/mL (≈ 144 µM)	17.9 µg/mL (≈ 41.8 µM)	9.71 µg/mL (≈ 22.7 µM)
C=C1C(=O)[C@]23C[C@H]1CC[C@H]2[C@]12CO[C@@H](CC1=O)C(C)(C)[C@H]2[C@H](OC(C)=O)C3=O	19.3 µg/mL (≈ 49.9 µM)	36.7 µg/mL (≈ 94.9 µM)	10.1 µg/mL (≈ 26.1 µM)	31.9 µg/mL (≈ 82.5 µM)	11.3 µg/mL (≈ 29.2 µM)
C=C1C(=O)[C@]23C[C@H]1CC[C@H]2[C@]12CO[C@@H](CC1=O)C(C)(C)[C@H]2[C@H](OC(=O)CBr)C3=O	4.54 µg/mL (≈ 9.76 µM)	67.1 µg/mL (≈ 144 µM)	10.9 µg/mL (≈ 23.4 µM)	26.6 µg/mL (≈ 57.1 µM)	14.9 µg/mL (≈ 32.1 µM)
C=C1C(=O)[C@]23C[C@H]1CC[C@H]2[C@]12CO[C@@H](CC1=O)C(C)(C)[C@H]2[C@H](OC(=O)CCCl)C3=O	8.88 µg/mL (≈ 20.4 µM)	22.7 µg/mL (≈ 52.1 µM)	20.3 µg/mL (≈ 46.6 µM)	51 µg/mL (≈ 117 µM)	10.5 µg/mL (≈ 24.1 µM)
C=C(C(=O)O)[C@@H]1CC[C@@H]2[C@@H](C1)C(=O)C(O)=C1C(C)(C)[C@@H]3CC(=O)[C@]12CO3	> 200 µg/mL	> 200 µg/mL	> 200 µg/mL	> 200 µg/mL	> 200 µg/mL
C=C1C(=O)[C@]23C[C@H]1CC[C@H]2[C@]1(COC3=O)C(=O)C=CC(C)(C)[C@H]1C=O	0.27 µg/mL (≈ 0.789 µM)	0.257 µg/mL (≈ 0.751 µM)	2.26 µg/mL (≈ 6.6 µM)	47.4 µg/mL (≈ 138 µM)	20.7 µg/mL (≈ 60.3 µM)
C=C1[C@@H]2CC[C@H]3[C@@]45CO[C@@](O)([C@@H](O)[C@@H]4C(C)(C)C=CC5=O)[C@]3(C2)[C@@H]1O	33.2 µg/mL (≈ 96 µM)	83.6 µg/mL (≈ 241 µM)	15.3 µg/mL (≈ 44.1 µM)	> 100 µg/mL	52.8 µg/mL (≈ 152 µM)
C=C1C(=O)[C@]23C[C@H]1CC[C@H]2[C@@]12CO[C@@]3(OC(C)=O)[C@@H](O)[C@@H]1C(C)(C)C=CC2=O	7.23 µg/mL (≈ 18.7 µM)	> 100 µg/mL	38.9 µg/mL (≈ 101 µM)	74.7 µg/mL (≈ 193 µM)	13.1 µg/mL (≈ 34 µM)
C=C1C(=O)[C@]23C[C@H]1CC[C@H]2[C@@]12CO[C@@]3(O)C(=O)[C@@H]1C(C)(C)C=CC2=O	4.94 µg/mL (≈ 14.4 µM)	59.6 µg/mL (≈ 174 µM)	33.2 µg/mL (≈ 96.9 µM)	12 µg/mL (≈ 35 µM)	7.28 µg/mL (≈ 21.3 µM)
C=C1C(=O)[C@]23C[C@H]1CC[C@H]2[C@@]12CO[C@@]3(O)[C@@H](O)[C@@H]1C(C)(C)C=CC2=O	1.32 µg/mL (≈ 3.83 µM)	0.15 µg/mL (≈ 0.436 µM)	2.49 µg/mL (≈ 7.23 µM)	1.34 µg/mL (≈ 3.89 µM)	1.8 µg/mL (≈ 5.23 µM)
C=C1[C@@H]2CC[C@H]3[C@@]45CO[C@@](O)([C@@H](O)[C@@H]4C(C)(C)C=C[C@@H]5O)[C@]3(C2)[C@@H]1O	> 100 µg/mL	> 100 µg/mL	> 100 µg/mL	> 100 µg/mL	> 200 µg/mL
C=CC(=O)O[C@H]1[C@@H]2C(C)(C)C=CC(=O)[C@]23CO[C@]1(O)[C@@]12C[C@@H](CC[C@@H]31)C(=C)C2=O	5.05 µg/mL (≈ 12.7 µM)	6.56 µg/mL (≈ 16.5 µM)	33 µg/mL (≈ 82.8 µM)	41.2 µg/mL (≈ 103 µM)	4.33 µg/mL (≈ 10.9 µM)
C=C1C(=O)[C@]23C[C@H]1CC[C@H]2[C@]1(COC3=O)C(=O)C=CC(C)(C)[C@H]1C(=O)O	> 100 µg/mL	> 100 µg/mL	> 100 µg/mL	> 100 µg/mL	> 200 µg/mL
C=C1C(=O)[C@]23C[C@H]1CC[C@H]2[C@]12CO[C@@H](CC1=O)C(C)(C)[C@H]2[C@H](OC(=O)CCCCl)C3=O	> 100 µg/mL	> 100 µg/mL	68.1 µg/mL (≈ 152 µM)	> 100 µg/mL	42.6 µg/mL (≈ 95 µM)
C=C(C(=O)O)[C@@H]1CC[C@@H]2[C@@H](C1)C(=O)[C@@H](O)[C@@H]1C(C)(C)[C@@H]3CC(=O)[C@@]21CO3	> 100 µg/mL	> 200 µg/mL	> 200 µg/mL	> 200 µg/mL	> 200 µg/mL
C=C1C(=O)[C@]23C[C@H]1CC[C@H]2[C@]12CO[C@@H](CC1=O)C(C)(C)[C@H]2[C@H](O)C3=O	3.73 µg/mL (≈ 10.8 µM)	8.87 µg/mL (≈ 25.8 µM)	27.2 µg/mL (≈ 79 µM)	33.2 µg/mL (≈ 96.3 µM)	16.9 µg/mL (≈ 49.2 µM)
C=C1[C@@H]2CC[C@H]3[C@@]45CO[C@@](O)([C@@H](O)[C@@H]4C(C)(C)CC[C@@H]5O)[C@]3(C2)[C@@H]1O	> 100 µg/mL	> 100 µg/mL	> 100 µg/mL	> 100 µg/mL	> 200 µg/mL
